Measured values published in ChEMBL document CHEMBL3351874, “Rational design of inhibitors of the bacterial cell wall synthetic enzyme GlmU using virtual screening and lead-hopping” (Bioorg Med Chem, 2014).
pIC50: −log10 of the molar value.

What was measured:
[1] = target: Bifunctional protein GlmU (Escherichia coli, UniProt C3SLB7); assay: Inhibition of Escherichia coli ATCC 27325 GlmU expressed in Escherichia coli HMS174(DE3) incubated for 15 mins prior to MgCl2 addition measured after 30 mins by malachite green staining-based assay
[2] = Inhibition of Haemophilus influenzae ATCC 51907 GlmU expressed in Escherichia coli BL21(DE3) incubated for 15 mins prior to MgCl2 addition measured after 30 mins by malachite green staining-based assay
[3] = Serum protein binding in human at 10 uM after 30 mins by ultrafiltration method; assay type: ADME; settings: read-out: PB (converted)
Aurora kinase B = Aurora kinase B (Homo sapiens, UniProt Q96GD4); assay: Inhibition of human AURKB incubated for 20 mins prior to MgCl2 addition measured after 90 mins by mobility shift assay
[4] = target: T1, Interleukin-1 receptor-associated kinase 4 (Homo sapiens, UniProt Q9NWZ3); assay: Inhibition of human IRAK4 incubated for 20 mins prior to MgCl2 addition measured after 90 mins by mobility shift assay
T1 sequence (Q9NWZ3 whole entry): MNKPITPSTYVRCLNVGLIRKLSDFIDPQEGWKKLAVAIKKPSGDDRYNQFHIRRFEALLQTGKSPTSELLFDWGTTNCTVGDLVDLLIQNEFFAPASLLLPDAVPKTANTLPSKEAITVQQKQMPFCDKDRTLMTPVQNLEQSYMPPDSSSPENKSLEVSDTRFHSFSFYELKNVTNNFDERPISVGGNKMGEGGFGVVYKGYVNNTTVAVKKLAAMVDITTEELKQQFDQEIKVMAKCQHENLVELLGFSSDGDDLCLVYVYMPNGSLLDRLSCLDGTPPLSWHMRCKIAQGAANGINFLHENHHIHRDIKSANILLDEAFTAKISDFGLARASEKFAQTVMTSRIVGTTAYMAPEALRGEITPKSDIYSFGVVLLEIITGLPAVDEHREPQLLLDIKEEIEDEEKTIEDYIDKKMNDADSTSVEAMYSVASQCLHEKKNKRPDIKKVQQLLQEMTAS

[5] = target: Interleukin-1 receptor-associated kinase 1 (Homo sapiens, UniProt P51617); assay: Inhibition of human IRAK1 incubated for 20 mins prior to MgCl2 addition measured after 90 mins by mobility shift assay
[6] = target: Tyrosine-protein kinase JAK1 (Homo sapiens, UniProt P23458); assay: Inhibition of human JAK1 incubated for 20 mins prior to MgCl2 addition measured after 90 mins by mobility shift assay
[7] = target: Tyrosine-protein kinase JAK2 (Homo sapiens, UniProt O60674); assay: Inhibition of human JAK2 incubated for 20 mins prior to MgCl2 addition measured after 90 mins by mobility shift assay
[8] = target: T2, Tyrosine-protein kinase JAK3 (Homo sapiens, UniProt P52333); assay: Inhibition of human JAK3 incubated for 20 mins prior to MgCl2 addition measured after 90 mins by mobility shift assay
T2 sequence (P52333 whole entry): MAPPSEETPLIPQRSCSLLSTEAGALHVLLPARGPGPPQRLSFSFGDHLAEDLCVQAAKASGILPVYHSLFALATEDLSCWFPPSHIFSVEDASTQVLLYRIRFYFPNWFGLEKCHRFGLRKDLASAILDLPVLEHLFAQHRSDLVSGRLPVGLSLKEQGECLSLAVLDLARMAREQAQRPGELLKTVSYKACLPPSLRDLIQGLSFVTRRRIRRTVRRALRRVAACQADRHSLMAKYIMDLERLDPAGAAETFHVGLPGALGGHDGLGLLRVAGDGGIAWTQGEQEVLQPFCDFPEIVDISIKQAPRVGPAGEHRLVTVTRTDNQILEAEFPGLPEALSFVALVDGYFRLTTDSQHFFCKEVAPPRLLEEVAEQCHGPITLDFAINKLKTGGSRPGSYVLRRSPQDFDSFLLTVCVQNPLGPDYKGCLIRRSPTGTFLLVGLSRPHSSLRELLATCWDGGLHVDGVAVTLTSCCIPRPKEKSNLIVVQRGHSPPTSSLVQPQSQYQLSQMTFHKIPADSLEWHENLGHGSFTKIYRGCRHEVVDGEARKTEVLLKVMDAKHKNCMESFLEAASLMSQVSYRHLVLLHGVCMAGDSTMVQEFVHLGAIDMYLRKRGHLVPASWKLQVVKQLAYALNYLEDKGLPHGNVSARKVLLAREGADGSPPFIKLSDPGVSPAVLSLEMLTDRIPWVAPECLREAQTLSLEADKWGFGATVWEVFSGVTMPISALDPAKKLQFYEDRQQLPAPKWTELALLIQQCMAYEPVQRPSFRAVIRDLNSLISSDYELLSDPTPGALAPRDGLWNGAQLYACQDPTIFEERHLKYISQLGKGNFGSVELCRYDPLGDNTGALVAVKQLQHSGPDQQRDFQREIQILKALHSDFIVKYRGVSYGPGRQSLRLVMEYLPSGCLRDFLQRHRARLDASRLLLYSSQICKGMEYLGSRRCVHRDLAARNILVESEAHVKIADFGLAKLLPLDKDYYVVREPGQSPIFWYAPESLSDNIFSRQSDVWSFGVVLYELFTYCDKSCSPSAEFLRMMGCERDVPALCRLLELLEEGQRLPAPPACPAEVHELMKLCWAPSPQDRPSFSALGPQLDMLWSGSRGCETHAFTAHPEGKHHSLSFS

[9] = target: Cyclin-dependent kinase 1 (Homo sapiens, UniProt P06493); assay: Inhibition of human CDK1 incubated for 20 mins prior to MgCl2 addition measured after 90 mins by mobility shift assay
[10] = target: Cyclin-dependent kinase 2 (Homo sapiens, UniProt P24941); assay: Inhibition of human CDK2 incubated for 20 mins prior to MgCl2 addition measured after 90 mins by mobility shift assay
[11] = target: Cyclin-dependent kinase 9 (Homo sapiens, UniProt P50750); assay: Inhibition of human CDK9 incubated for 20 mins prior to MgCl2 addition measured after 90 mins by mobility shift assay
Chain of Cyclin-dependent kinase 9 (P50750 whole entry): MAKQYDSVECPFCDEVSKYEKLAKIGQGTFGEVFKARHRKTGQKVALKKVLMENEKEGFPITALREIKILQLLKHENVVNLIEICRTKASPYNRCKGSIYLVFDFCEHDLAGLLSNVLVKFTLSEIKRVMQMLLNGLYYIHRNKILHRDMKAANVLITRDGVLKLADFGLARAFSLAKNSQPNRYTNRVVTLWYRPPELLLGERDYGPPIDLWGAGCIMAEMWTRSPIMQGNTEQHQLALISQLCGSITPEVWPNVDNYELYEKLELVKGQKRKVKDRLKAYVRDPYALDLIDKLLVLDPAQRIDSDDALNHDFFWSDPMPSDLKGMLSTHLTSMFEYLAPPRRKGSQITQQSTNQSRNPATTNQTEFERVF

Chain of Interleukin-1 receptor-associated kinase 1 (P51617 whole entry): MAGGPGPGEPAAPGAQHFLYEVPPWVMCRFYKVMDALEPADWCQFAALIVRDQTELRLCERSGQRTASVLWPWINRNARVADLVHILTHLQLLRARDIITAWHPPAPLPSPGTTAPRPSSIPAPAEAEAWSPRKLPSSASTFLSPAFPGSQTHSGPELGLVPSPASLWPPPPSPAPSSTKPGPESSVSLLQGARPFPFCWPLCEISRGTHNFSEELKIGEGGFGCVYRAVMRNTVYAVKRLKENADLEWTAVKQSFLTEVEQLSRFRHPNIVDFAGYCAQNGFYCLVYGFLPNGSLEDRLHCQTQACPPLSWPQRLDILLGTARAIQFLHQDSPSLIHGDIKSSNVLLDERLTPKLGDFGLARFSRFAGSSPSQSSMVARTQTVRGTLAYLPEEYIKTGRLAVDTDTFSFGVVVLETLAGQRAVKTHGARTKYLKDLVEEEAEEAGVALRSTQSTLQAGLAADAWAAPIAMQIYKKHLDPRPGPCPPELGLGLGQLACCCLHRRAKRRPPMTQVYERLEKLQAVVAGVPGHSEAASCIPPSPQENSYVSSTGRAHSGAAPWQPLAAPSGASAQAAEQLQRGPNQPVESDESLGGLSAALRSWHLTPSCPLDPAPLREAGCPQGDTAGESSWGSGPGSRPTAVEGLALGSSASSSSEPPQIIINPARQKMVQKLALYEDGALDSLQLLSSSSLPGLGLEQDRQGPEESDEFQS
Chain of Aurora kinase B (Q96GD4 whole entry): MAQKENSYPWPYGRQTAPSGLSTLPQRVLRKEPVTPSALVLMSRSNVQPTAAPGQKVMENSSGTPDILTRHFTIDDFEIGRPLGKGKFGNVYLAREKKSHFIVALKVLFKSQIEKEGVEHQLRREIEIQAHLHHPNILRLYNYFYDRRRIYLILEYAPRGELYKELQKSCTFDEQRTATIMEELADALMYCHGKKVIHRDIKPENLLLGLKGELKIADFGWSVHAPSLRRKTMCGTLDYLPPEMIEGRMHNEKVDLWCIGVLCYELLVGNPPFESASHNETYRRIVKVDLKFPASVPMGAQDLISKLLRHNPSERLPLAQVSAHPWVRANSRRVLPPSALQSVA
Chain of Bifunctional protein GlmU (C3SLB7 whole entry): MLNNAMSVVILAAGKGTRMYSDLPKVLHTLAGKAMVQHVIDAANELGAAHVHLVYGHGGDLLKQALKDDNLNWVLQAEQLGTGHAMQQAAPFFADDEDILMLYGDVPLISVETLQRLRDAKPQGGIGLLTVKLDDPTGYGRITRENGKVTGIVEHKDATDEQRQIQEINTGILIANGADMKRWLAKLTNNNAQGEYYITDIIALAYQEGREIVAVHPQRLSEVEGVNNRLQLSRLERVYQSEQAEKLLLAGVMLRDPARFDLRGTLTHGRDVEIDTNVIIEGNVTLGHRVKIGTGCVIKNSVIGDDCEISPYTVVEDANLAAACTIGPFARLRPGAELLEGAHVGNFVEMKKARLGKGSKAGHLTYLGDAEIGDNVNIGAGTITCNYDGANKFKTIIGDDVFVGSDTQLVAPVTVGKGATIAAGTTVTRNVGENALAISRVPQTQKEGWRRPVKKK
Chain of Cyclin-dependent kinase 1 (P06493 whole entry): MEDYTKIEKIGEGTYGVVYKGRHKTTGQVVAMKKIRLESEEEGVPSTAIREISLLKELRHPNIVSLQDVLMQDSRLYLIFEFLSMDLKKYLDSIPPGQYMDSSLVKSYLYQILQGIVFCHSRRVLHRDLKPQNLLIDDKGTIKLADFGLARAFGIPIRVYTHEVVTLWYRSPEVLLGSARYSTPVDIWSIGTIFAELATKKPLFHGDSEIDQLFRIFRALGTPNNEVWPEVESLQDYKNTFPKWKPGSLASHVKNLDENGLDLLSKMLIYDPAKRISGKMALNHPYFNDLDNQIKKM
Chain of Tyrosine-protein kinase JAK1 (P23458 whole entry): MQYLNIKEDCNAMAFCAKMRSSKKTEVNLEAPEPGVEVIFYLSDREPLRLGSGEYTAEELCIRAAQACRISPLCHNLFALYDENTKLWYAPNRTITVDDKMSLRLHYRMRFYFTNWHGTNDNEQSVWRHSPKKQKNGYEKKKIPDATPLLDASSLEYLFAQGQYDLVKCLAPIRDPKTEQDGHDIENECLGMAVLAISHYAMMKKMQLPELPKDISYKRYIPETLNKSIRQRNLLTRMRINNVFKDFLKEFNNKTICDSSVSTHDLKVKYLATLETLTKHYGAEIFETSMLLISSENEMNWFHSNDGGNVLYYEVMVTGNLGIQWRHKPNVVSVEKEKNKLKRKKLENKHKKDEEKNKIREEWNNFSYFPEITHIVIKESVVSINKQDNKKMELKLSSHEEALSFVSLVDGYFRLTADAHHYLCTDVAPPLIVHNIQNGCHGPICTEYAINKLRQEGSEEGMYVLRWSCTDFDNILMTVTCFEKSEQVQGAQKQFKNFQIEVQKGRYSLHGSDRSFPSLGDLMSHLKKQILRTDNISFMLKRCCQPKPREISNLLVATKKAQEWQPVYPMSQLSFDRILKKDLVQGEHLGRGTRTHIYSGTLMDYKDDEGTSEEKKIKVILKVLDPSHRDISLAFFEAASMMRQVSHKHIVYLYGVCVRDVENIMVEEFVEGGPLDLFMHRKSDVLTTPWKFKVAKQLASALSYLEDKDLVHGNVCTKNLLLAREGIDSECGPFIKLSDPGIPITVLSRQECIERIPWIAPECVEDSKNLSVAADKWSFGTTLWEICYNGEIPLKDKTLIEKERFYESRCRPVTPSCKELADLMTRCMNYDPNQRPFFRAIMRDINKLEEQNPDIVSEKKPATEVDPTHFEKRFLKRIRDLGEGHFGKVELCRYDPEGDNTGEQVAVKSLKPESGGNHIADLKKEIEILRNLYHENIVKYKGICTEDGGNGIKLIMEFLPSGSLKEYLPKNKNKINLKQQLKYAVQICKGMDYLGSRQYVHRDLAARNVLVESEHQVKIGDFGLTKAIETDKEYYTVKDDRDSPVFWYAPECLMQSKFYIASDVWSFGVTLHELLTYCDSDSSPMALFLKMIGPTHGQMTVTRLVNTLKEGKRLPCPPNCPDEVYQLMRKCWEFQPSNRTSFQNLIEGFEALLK
Chain of Tyrosine-protein kinase JAK2 (O60674 whole entry): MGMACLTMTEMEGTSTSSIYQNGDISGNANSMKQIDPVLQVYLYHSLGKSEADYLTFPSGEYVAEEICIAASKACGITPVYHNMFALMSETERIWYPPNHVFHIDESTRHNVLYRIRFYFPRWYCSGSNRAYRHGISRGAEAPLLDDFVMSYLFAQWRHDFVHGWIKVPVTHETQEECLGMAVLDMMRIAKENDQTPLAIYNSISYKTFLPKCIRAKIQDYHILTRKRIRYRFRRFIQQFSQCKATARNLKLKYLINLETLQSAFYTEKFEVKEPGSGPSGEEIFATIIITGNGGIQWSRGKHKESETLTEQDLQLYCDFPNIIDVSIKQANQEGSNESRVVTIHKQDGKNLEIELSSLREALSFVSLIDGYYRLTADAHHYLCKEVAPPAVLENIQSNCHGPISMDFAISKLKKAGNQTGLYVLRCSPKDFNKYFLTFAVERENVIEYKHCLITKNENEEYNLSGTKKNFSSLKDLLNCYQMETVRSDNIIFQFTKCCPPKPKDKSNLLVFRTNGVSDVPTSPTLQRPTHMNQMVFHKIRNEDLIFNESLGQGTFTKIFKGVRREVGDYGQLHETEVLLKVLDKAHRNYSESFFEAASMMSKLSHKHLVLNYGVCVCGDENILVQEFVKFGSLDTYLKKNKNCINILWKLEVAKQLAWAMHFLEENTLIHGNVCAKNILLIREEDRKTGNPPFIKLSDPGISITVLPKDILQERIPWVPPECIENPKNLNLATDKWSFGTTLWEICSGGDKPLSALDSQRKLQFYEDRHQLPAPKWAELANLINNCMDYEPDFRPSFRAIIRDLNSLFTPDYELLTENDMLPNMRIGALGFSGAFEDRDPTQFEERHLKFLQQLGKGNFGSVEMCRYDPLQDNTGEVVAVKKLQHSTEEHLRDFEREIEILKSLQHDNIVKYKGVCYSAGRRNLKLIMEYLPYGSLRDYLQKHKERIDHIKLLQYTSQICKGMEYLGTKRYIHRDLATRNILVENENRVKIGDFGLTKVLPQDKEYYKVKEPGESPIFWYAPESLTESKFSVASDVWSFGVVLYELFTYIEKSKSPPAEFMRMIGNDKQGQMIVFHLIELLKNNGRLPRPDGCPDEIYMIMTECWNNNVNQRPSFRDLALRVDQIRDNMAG

| Structure (SMILES) | pIC50 [1] | pIC50 [2] | fraction unbound at 0.5 h, 10 µM [3] | pIC50 (Aurora kinase B) | pIC50 [4] | pIC50 [5] | pIC50 [6] | pIC50 [7] | pIC50 [8] | pIC50 [9] | pIC50 [10] | pIC50 [11] |
| --- | --- | --- | --- | --- | --- | --- | --- | --- | --- | --- | --- | --- |
| COc1cc2c(Nc3ccc(NC(=O)c4ccccc4)cc3)nc(NCCCn3ccnc3)nc2cc1O | 5.35 | 5.95 | 0.012 |  |  |  |  |  |  |  |  |  |
| COc1cc(C(=O)Nc2ccc(NC(=O)c3ccccc3)cc2)ccc1OCC(N)=O | < 4.66 | < 4.66 |  |  |  |  |  |  |  |  |  |  |
| COc1cc(C(=O)Nc2ccc(NC(=O)c3ccccn3)cc2)cc(-c2nc(=O)o[nH]2)c1 | < 4.66 | 5.77 | 0.016 |  |  |  |  |  |  |  |  |  |
| COc1cc2c(Nc3ccc(NC(=O)c4ccccc4)cc3)ncnc2cc1OCC(=O)O | 5.17 | 5.49 | < 0.01 | 6.16 | < 4.52 | < 4.52 | < 4.52 | < 4.52 | < 4.52 | < 4.52 | < 4.52 | < 4.52 |
| COc1cc2c(Nc3ccc(NC(=O)c4ccccc4)cc3)nc(NCCc3ccccn3)nc2cc1O | 6.19 | 6.42 | < 0.01 | < 4.52 | 6.24 | < 4.52 | < 4.52 | < 4.52 | < 4.52 | < 4.52 | < 4.52 | < 4.52 |
| COc1cc2c(Nc3ccc(NC(=O)c4ccccc4)cc3)nc(Cc3ccccc3)nc2cc1O | 5.32 | 5.74 | < 0.01 |  |  |  |  |  |  |  |  |  |
| COc1cc(C(=O)Nc2ccc(NC(=O)c3ccccc3)cc2)c(N)cc1O | 5.23 | 5.21 | 0.011 | < 4.52 | < 4.52 | < 4.52 | < 4.52 | < 4.52 | < 4.52 | < 4.52 | < 4.52 | < 4.52 |
| COc1cc2c(Nc3ccc(NC(=O)c4ccccc4)cc3)ncnc2cc1OCCO | 4.46 | 4.72 |  | 7.56 | 4.61 | < 4.52 | < 4.52 | < 4.52 | < 4.52 | < 4.52 | < 4.52 | < 4.52 |
| COc1cc2c(Nc3ccc(NC(=O)c4ccccc4)cc3)nc(N)nc2cc1O | 4.98 | 5.77 | 0.023 | < 4.52 | < 4.52 | < 4.52 | < 4.52 | < 4.52 | < 4.52 | < 4.52 | < 4.52 | < 4.52 |
| COc1cc(C(=O)Nc2ccc(NC(=O)c3ccccn3)cc2)cc(N2CCC(=O)NC2=O)c1 | 5.77 | 7.15 | 0.097 | 4.84 | < 4.52 | < 4.52 | < 4.52 | < 4.52 | < 4.52 | < 4.52 | < 4.52 | < 4.52 |
| COc1cc(C(=O)Nc2ccc(NC(=O)c3ccccc3)cc2)ccc1O | 4.74 | 5.85 | < 0.01 | < 4.52 | < 4.52 | < 4.52 | < 4.52 | < 4.52 | < 4.52 | < 4.52 | < 4.52 | < 4.52 |
| O=C(Nc1ccc(NC(=O)c2ccccn2)cc1)c1ccc(O)c([N+](=O)[O-])c1 | 5.51 | 7.30 | < 0.01 | 4.64 | < 4.52 | < 4.52 | < 4.52 | < 4.52 | < 4.52 | < 4.52 | < 4.52 | < 4.52 |
| COc1cc(C(=O)Nc2ccc(NC(=O)c3ccccn3)cc2)cc(-c2c[nH]c(=O)[nH]c2=O)c1 | 7.57 | 8.77 |  | < 4.52 | < 4.52 | < 4.52 | < 4.52 | < 4.52 | < 4.52 | < 4.52 | < 4.52 | < 4.52 |
| COc1cc(C(=O)Nc2ccc(NC(=O)c3ccccn3)cc2)cc(-c2cnc(=O)[nH]c2)c1 | 5.38 | 6.01 | < 0.01 |  |  |  |  |  |  |  |  |  |
| COc1cc(C(=O)Nc2ccc(NC(=O)c3ccccc3)cc2)ccc1OCC(=O)O | < 4.17 | 4.64 |  | < 4.52 | < 4.52 | < 4.52 | < 4.52 | < 4.52 | < 4.52 | < 4.52 | < 4.52 | < 4.52 |
| COc1cc2c(Nc3ccc(NC(=O)c4ccccc4)cc3)nc(-c3ccccn3)nc2cc1O | 5.57 | 5.82 | < 0.01 |  |  |  |  |  |  |  |  |  |
| COc1cc2c(Nc3ccc(NC(=O)c4ccccc4)cc3)ncnc2cc1O | 5.89 | 6.59 |  | 6.56 | < 4.52 | < 4.52 | < 4.52 | < 4.52 | < 4.52 | < 4.52 | < 4.52 | < 4.52 |
| COc1cc(C(=O)Nc2ccc(NC(=O)c3ccccc3)cc2)cc(-c2c[nH]c(=O)[nH]c2=O)c1O | 6.59 | 7.70 | 0.019 |  |  |  |  |  |  |  |  |  |
| O=c1[nH]cc(-c2cccc(Br)c2)c(=O)[nH]1 |  | 4.30 |  |  |  |  |  |  |  |  |  |  |
| O=c1[nH]cc(-c2cccc([N+](=O)[O-])c2)c(=O)[nH]1 |  | 2.71 |  |  |  |  |  |  |  |  |  |  |
| COc1cc(C(=O)Nc2ccc(NC(=O)c3ccccn3)cc2)cc(-c2nn[nH]n2)c1 | 4.68 | 6.26 | 0.032 |  |  |  |  |  |  |  |  |  |
| COc1cc2c(Nc3ccc(NC(=O)c4ccccc4)cc3)nc(C)nc2cc1O | 5.66 | 6.41 | 0.097 | < 4.52 | < 4.52 | < 4.52 | < 4.52 | < 4.52 | < 4.52 | < 4.52 | < 4.52 | < 4.52 |
| COc1cc2c(Nc3ccc(NC(=O)c4ccccc4)cc3)ncnc2cc1OCC(N)=O | < 4.66 | < 4.66 |  | 6.81 | < 4.52 | < 4.52 | < 4.52 | < 4.52 | < 4.52 | < 4.52 | < 4.52 | < 4.52 |
| COc1cc2c(Nc3ccc(NC(=O)c4ccccc4)cc3)nc(Cl)nc2cc1O | 6.43 | 6.19 | 0.021 |  |  |  |  |  |  |  |  |  |
